Consider 1 molecule from patent publication US20130324606A1, “Ester Derivatives of Bimatoprost Compositions and Methods” (ALLERGAN, INC., priority 2011, published 2013).

This experiment deals with human hair dermal papilla cells, HHDPC. The experiment in a line: Cellular dielectric spectroscopy (CDS) in dermal papilla cells. Type of experiment: cell-based. As to the method:
Cellular dielectric spectroscopy (CDS) was conducted in an assay of dermal papilla cells (i.e., human hair dermal papilla cells, HHDPC) with bimatoprost and Cmpds IVc and IVb. As known in the art, CDS is a real-time, non-invasive, label-free, high-throughput, cell-based assay which measures electrical cell impedance. Without wishing to be bound by any theory, it is believed that GPCR activation induces changes in cell morphology, cell-cell interaction, and cell adherence which manifest as a change in cell impedance.

For the molecule `CCCC(=O)O[C@H](/C=C/[C@@H]1[C@@H](C/C=C\CCCC(=O)NCC)[C@@H](O)C[C@H]1O)CCc1ccccc1` [Cmpd IVc, 15-butyryl bimatoprost], the “change in cell impedance” value is “not observed to provide a change in cell impedance”. The EC50 result (cell impedance, tested range 10^−4 to 10^−13 mol/L) is listed as “could not be determined”.
